Article PMC9851200, “Multiparameter phenotypic screening for endogenous TFEB and TFE3 translocation identifies novel chemical series modulating lysosome function” (Autophagy, 2022)
Where two headings read alike, the source gives them in different places.

Tests used:
endogenous TFE3 = test: TFE3 nuclear translocation, immunocytochemistry high-content imaging; type: cell-based; details: PKIS2 primary screening
endogenous TFEB = test: TFEB nuclear translocation, immunocytochemistry high-content imaging; type: cell-based; details: PKIS2 primary screening
SH-SY5Y cells [1] = details: PKIS2 primary screening
Excerpt: The PKIS2 Library was supplied by The Structural Genomics Consortium at the University of North Carolina at Chapel Hill.

SH-SY5Y cells [2] = test: Chemotype enrichment analysis of PKIS2 primary screen hit categories; details: PKIS2 primary screening, hit category
SH-SY5Y cells [3] = test: Nuclear count from microscopy images (cellular growth and toxicity); details: PKIS2 primary screening; note: reference of the scale not given here
SH-SY5Y cells [4] = test: AK (adenylate kinase) release ToxiLight cytotoxicity assay; details: PKIS2 primary screening; note: reference of the scale not given here
Throughout, for DQ Intensity: reference of the scale not given here.
Throughout, for DQ Spot: reference of the scale not given here.

Compound	TFE3 % (endogenous TFE3)	TFEB % (endogenous TFEB)	DQ Intensity (SH-SY5Y cells [1]; DQ Red BSA intensity)	DQ Spot (SH-SY5Y cells [1]; DQ Red BSA spot count)	Outcome (SH-SY5Y cells [2])	Nuclear Count (SH-SY5Y cells [3])	AK (SH-SY5Y cells [4])	DQ Intensity (SH-SY5Y cells [1])	DQ Spot (SH-SY5Y cells [1])
Cl.c1ccc(Oc2ccc(Nc3ccnc4cc(-c5ccc(CN6CCNCC6)o5)ccc34)cc2)nc1 [UNC10225130B]	38.53%	17.19%	87.94	55.20	LYSO TOXIC	88.02	101.15		
c1ccc(-c2ccnc3[nH]ccc23)cc1 [UNC10225337A]	8.32%	6.67%	103.32	96.87	TOXIC	120.86	289.20		
Cl.Cn1ccc(-c2cccc(Nc3ccnc4cc(-c5nccs5)ccc34)c2)n1 [UNC10225141A]	26.05%	12.07%	161.91	66.27	TOXIC	43.03	174.83		
Fc1cccc(COc2ccc(Nc3ncnc4nn5ccccc5c34)cc2Cl)c1 [UNC10225319A]	21.26%	3.13%	134.45	139.92	TFE3 + DQ	77.83	110.07		
COc1cc(Nc2nccc(N3CCC(NC(=O)C4COc5ccccc5O4)C3)n2)cc(OC)c1OC (stereo not shown) [GSK1379761]	10.33%	2.44%	95.14	97.75		125.75	96.01		
O=C(O)C(F)(F)F.O=C(O)C(F)(F)F.O=c1[nH]ccc2nc(N[C@@H]3CCCNC3)nc(Nc3ccc(S(=O)(=O)N4CCOCC4)cc3)c12 [UNC10225269A]	12.97%	8.33%				106.18	88.07	101.94	104.22
COc1ccc2cc(-c3nc(-c4ccccc4C(C)C)[nH]c3-c3ccncc3)ccc2c1 [UNC10225291A]	9.24%	11.56%	102.38	102.77		105.82	85.35		
CSc1ccc(-c2nc3n(c2-c2ccncc2)CCC3)cc1 [UNC10225486A]	13.99%	5.52%	119.41	102.53		91.88	80.57		
Cc1ccc(NC(=O)Nc2ccc(Cl)cc2)cc1-c1ccc(C(=O)Nc2ccncc2)cc1 [UNC10225388A]	28.63%	7.90%				82.28	83.48	98.78	97.95
Cl.Cl.c1ccc(-c2cc3ccncc3cc2OC2CCNCC2)cc1 [UNC10225463A]	49.72%	5.07%				112.69	97.09	117.87	77.04
COc1ccc(Nc2nccc(NCCNC(=O)Nc3cc(C)ccc3C)n2)cc1 [GSK1379899]	15.31%	7.12%	123.56	108.96		88.82	79.47		
O=C(NC1CCN(c2ccnc(Nc3ccc(F)cc3)n2)C1)c1cc2ccccc2s1 (stereo not shown) [GSK1379716]	24.94%	2.96%	72.95	96.75		86.00	79.19		
FC(F)(F)c1cc(Nc2nccc(-c3c(-c4ccc(Cl)cc4)nn4ncccc34)n2)ccc1Cl [UNC10225192A]	11.31%	6.87%				86.86	128.18	96.76	105.34
O=c1cc(N2CCOCC2)nc2n(Cc3cccc4ccccc34)ccn12 [UNC10225439A]	9.76%	8.17%				128.21	77.38	73.77	88.56
COc1cc(Nc2nccc(N3CCC(NC(=O)c4cc5ccccc5s4)C3)n2)cc(OC)c1OC (stereo not shown) [GSK1379760]	8.33%	5.00%	67.71	93.69		107.53	89.79		
Cl.Oc1cc(-c2nc(-c3ccccc3)[nH]c2-c2ccncc2)ccc1Cl [UNC10225128B]	11.76%	6.45%	96.34	92.51		80.05	91.39		
CSc1nn2c(=O)cc(N3CCOCC3)nc2n1Cc1cccc(Cl)c1Cl [UNC10225435A]	19.82%	4.09%				99.93	85.33	59.30	119.93
COc1ccc(Nc2nccc(N3CCC(NC(=O)Nc4ccc5c(c4)OCO5)C3)n2)cc1 (stereo not shown) [GSK1379745]	19.51%	10.83%	69.10	77.91		86.22	76.28		
Nc1nccc(-c2c(-c3ccc(F)cc3)ncn2C2CCN(CC(F)(F)F)CC2)n1 [UNC10225173A]	11.80%	11.13%				107.53	117.50	90.34	99.50
O=c1cc(N2CCOCC2)nc2n(Cc3ccc(F)c(Cl)c3)ccn12 [UNC10225343A]	7.68%	4.66%				115.81	80.61	102.25	107.68
COc1ccc(NC(=O)Nc2ccc(C)c(-c3ccc(C(=O)Nc4ccncc4)cc3)c2)cc1 [UNC10225445A]	17.87%	6.73%				96.32	81.64	64.07	80.56
COc1cc2ncn(-c3cc(OCCCc4ccccc4)c(C(N)=O)s3)c2cc1OC [UNC10225450A]	11.96%	3.13%				118.22	94.56	116.92	123.73
Cl.Cl.NCC(NC(=O)c1cc(-c2ccccc2)c(-c2ccnc3[nH]ccc23)s1)c1ccccc1 (stereo not shown) [UNC10225466A]	18.77%	5.04%	104.29	96.16		129.43	133.16		
N#Cc1ccc(-c2cc(-c3c[nH]nc3-c3ccccn3)ccn2)cc1 [UNC10225072A]	14.52%	2.62%	58.59	75.50		116.96	65.14		
COc1cccc2c(-c3ccncc3)c(-c3ccc(F)cc3)nn12 [UNC10225305A]	7.73%	7.57%	96.09	98.66		99.48	95.93		
NC(=O)c1sc(-n2cnc3ccccc32)cc1OCc1ccccc1F [UNC10225260A]	15.10%	10.02%				92.38	77.77	138.58	126.89
